This passage reports IC50 results from patent publication US9187487B2, “Azaindole derivatives as tyrosine kinase inhibitors” (PRINCIPIA BIOPHARMA, INC., priority 2011, dated 2015).

Sequence of recombinant JAK3 (catalytic domain, aa 781-1124) (P52333 781-1124): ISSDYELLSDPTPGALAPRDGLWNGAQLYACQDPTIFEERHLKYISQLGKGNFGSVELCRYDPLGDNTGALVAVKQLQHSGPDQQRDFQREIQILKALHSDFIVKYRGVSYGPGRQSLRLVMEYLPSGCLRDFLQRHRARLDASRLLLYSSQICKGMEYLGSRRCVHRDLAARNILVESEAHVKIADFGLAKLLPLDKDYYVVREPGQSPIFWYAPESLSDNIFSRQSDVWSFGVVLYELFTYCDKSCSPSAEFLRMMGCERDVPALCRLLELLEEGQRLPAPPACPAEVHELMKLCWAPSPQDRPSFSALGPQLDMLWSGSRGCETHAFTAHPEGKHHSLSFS

For the assay, the target named is recombinant JAK3 (catalytic domain, aa 781-1124) (Homo sapiens (Human), UniProt P52333). In words: JAK3 Caliper Peptide Phosphorylation Assay. Type of assay: biochemical. To be noted: fluorescently labeled Srctide substrate 1 uM; ATP at 1×Km (2 uM); 2 hours at 25° C. Here is the method:
JAK3 Caliper Peptide Phosphorylation Assay
Phosphorylation of the appropriate peptide substrate (fluorescently labeled Srctide) by recombinant JAK3 (catalytic domain, aa 781-1124) was measured in the presence and absence of different concentrations of test compounds. Test compound, enzyme, fluorescently labeled substrate, and cofactors (ATP and Mg^2+) were combined in a well of a microtiter plate and incubated for 2 hours at 25° C. The composition of the reaction buffer was 100 mM HEPES pH 7.5, 5 mM MgCl2, 0.01% Triton-X 100, 0.1% Bovine Serum Albumin, and 1% DMSO. Enzyme concentration in the final reaction mixture was 0.5 nM while peptide substrate was at 1 uM. ATP was used at 1×Km concentration corresponding to 2 uM. Serial dilutions (3-fold steps) of compounds were prepared in DMSO. At the end of the incubation, the reaction was stopped by the addition of 20 mM EDTA. Substrate and product (i.e. phosphorylated substrate) were separated electrophoretically and both were quantified by fluorescence intensity using the microfluidics-based LabChip 3000 Drug Discovery System from Caliper Life Sciences. Conversion for each well was calculated and plotted as function of test compound concentration. IC50 value was determined by fitting the data to a 4-parameter logistic model by non-linear regression (XLfit model 205). In every assay, Staurosporine was tested in the same manner as reference compound. Selectivity for JAK3 was determined using commercially available kinase cross-screening services (DiscoveRx, San Diego, Calif.).
Regarding `CN(C)CCN1C(=O)SC(=Cc2ccc(Nc3cnc4[nH]cc(C(=O)C(C)(C)C)c4n3)cc2)C1=O` [compound 88, 3-(2-(dimethylamino)ethyl)-5-(4-((7-pivaloyl-5H-pyrrolo[2,3-b]pyrazin-2-yl)amino)-benzylidene)thiazolidine-2,4-dione], the concentration for half-maximal inhibition (IC50) worked out at 0.003 µM.
On to `CC(C)(C)C(=O)c1c[nH]c2ncc(Nc3ccc(C=C(C#N)C(=O)N4CCC4)cc3)nc12` [compound 62, 2-(azetidine-1-carbonyl)-3-(4-((7-pivaloyl-5H-pyrrolo[2,3-b]pyrazin-2-yl)amino)phenyl)acrylonitrile], for which the half-inhibitory concentration (IC50) was determined as 0.0004 µM.
With `CN(C)C(=O)C(C#N)=Cc1cccc(Nc2ncnc3[nH]ccc23)c1` [compound 3, 3-(3-((7H-pyrrolo[2,3-d]pyrimidin-4-yl)amino)-phenyl)-2-cyano-N,N-dimethylacrylamide], the IC50 was found to be 0.15 µM.
The figure for `CN(C)C(=O)C(C#N)=Cc1ccc(Oc2ncnc3[nH]ccc23)cc1` [compound 12, 3-(4-((7H-pyrrolo[2,3-d]pyrimidin-4-yl)oxy)phenyl)-2-cyano-N,N-dimethylacrylamide] is 0.28 µM; for `CN(C)C(=O)C(C#N)=Cc1ccc(Nc2cnc3[nH]cc(C(=O)C(C)(C)C)c3n2)cc1Cl` [compound 68, 3-(2-chloro-4-(7-pivaloyl-5H-pyrrolo-[2,3-b]pyrazin-2-ylamino)phenyl)-2-cyano-N,N-dimethylacrylamide] it is 0.001 µM; for `CN(C)C(=O)C(C#N)=Cc1ccc(Nc2cnc3[nH]cc(C(=O)C(C)(C)C)c3n2)cn1` [compound 70, 2-cyano-N,N-dimethyl-3-(5-((7-pivaloyl-5H-pyrrolo[2,3-b]pyrazin-2-yl)amino)pyridin-2-yl)acrylamide] it is 0.0009 µM.
With `CN(C)C(=O)C(C#N)=Cc1cccc(N(C)c2ncnc3[nH]ccc23)c1` [compound 4, 2-cyano-N,N-dimethyl-3-(3-(methyl(7H-pyrrolo[2,3-d]pyrimidin-4-yl)amino)phenyl)acrylamide], the IC50 was over 1 µM.
On to `CCOC(=O)C(C#N)=Cc1ccc(Nc2cnc3[nH]cc(C(=O)C(C)(C)C)c3n2)cc1` [compound 79, ethyl 2-cyano-3-(4-((7-pivaloyl-5H-pyrrolo[2,3-b]-pyrazin-2-yl)amino)phenyl)acrylate], for which the IC50 turned out to be 0.1 µM.
In the case of `CN(C)C(=O)C(C#N)=Cc1ccc(Nc2cnc3[nH]cc(C(=O)C(C)(C)C)c3n2)cc1F` [compound 66, 2-cyano-3-(2-fluoro-4-((7-pivaloyl-5H-pyrrolo[2,3-b]pyrazin-2-yl)amino)phenyl)-N,N-dimethylacrylamide], the IC50 was 0.0007 µM.
For the compound `Cc1ccc(Nc2ncnc3[nH]ccc23)cc1C=C(C#N)C(=O)N(C)C` [compound 19, 3-(5-((7H-pyrrolo[2,3-d]pyrimidin-4-yl)amino)-2-methylphenyl)-2-cyano-N,N-dimethylacrylamide], the IC50 is over 5 µM.
The figure for `CN(C)C(=O)C(C#N)=Cc1cccc(-c2cnc3[nH]ccc3n2)c1` [compound 27, 3-(3-(5H-pyrrolo[2,3-b]pyrazin-2-yl)phenyl)-2-cyano-N,N-dimethylacrylamide] is over 1 µM.
In the case of `CN(C)C(=O)C(C#N)=Cc1ccc(Nc2ncnc3[nH]ccc23)cc1` [compound 6, 3-(4-((7H-pyrrolo[2,3-d]pyrimidin-4-yl)amino)-phenyl)-2-cyano-N,N-dimethylacrylamide], the IC50 came to 0.58 µM.
With `CC(C)(C)C(=O)c1c[nH]c2ncc(Nc3ccc(C=C(C#N)C(=O)N4CCCCC4)cc3)nc12` [compound 76, 2-(piperidine-1-carbonyl)-3-(4-((7-pivaloyl-5H-pyrrolo[2,3-b]pyrazin-2-yl)amino)phenyl)-acrylonitrile], the IC50 amounted to 0.001 µM.
The figure for `CN(C)C(=O)C(C#N)=Cc1ccc(Oc2cnc3[nH]ccc3n2)cc1` [compound 32, 3-(4-((5H-pyrrolo[2,3-b]pyrazin-2-yl)oxy)phenyl)-2-cyano-N,N-dimethylacrylamide] is 0.32 µM.

A word on the IC50: it is the concentration that gives 50% inhibition.
